Experimental data: PubChem BioAssay (NCI)
Values joined by “and” are separate entries in the source; they are usually repeats but may differ in a detail not shown here. Equal values may be shown once.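 In this assay, cells in 96-well plates receive the compound at five concentrations for 48 hours. Endpoints are linearly interpolated between the surrounding concentrations. The concentration for 50% growth inhibition is given as GI50. Definition used: TGI = concentration required for complete inhibition of growth.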

Assays:
Test in all cases: NCI anticancer screen, dose series, 48 h
ACHN renal = system: ACHN renal
HOP-62 NSCLC = system: HOP-62 NSCLC
K-562 leukemia = system: K-562 leukemia
NCI/ADR-RES ovarian = system: NCI/ADR-RES ovarian
OVCAR-4 ovarian = system: OVCAR-4 ovarian
OVCAR-8 ovarian = system: OVCAR-8 ovarian
SK-MEL-5 melanoma = system: SK-MEL-5 melanoma
SK-OV-3 ovarian = system: SK-OV-3 ovarian
SR leukemia = system: SR leukemia
TK-10 renal = system: TK-10 renal

Compound | TGI (ACHN renal) | TGI (HOP-62 NSCLC) | TGI (K-562 leukemia) | TGI (NCI/ADR-RES ovarian) | TGI (OVCAR-4 ovarian) | TGI (OVCAR-8 ovarian) | TGI (SK-MEL-5 melanoma) | TGI (SK-OV-3 ovarian) | TGI (SR leukemia) [µM] | TGI (TK-10 renal) | GI50 (ACHN renal) [µM] | GI50 (HOP-62 NSCLC) [µM] | GI50 (K-562 leukemia) [µM] | GI50 (NCI/ADR-RES ovarian) [µM] | GI50 (OVCAR-4 ovarian) [µM] | GI50 (OVCAR-8 ovarian) [µM] | GI50 (SK-MEL-5 melanoma) [µM] | GI50 (SK-OV-3 ovarian) [µM] | GI50 (SR leukemia) [µM] | GI50 (TK-10 renal) [µM]
CCc1[nH]c(=O)nc(N)c1-c1ccc(N2CCCCC2)c([N+](=O)[O-])c1 | > 100 µM | > 100 µM | > 100 µM | > 100 µM | > 100 µM | > 100 µM | > 100 µM | > 100 µM | > 100 | > 100 µM |  |  |  |  |  |  |  |  |  | 
CCOC(=O)c1c(CN2CCN(c3ccccc3)CC2)n(-c2ccccc2)c2cc(Br)c(O)cc12 | 21.9 µM | 33.4 µM | > 100 µM | 41.7 µM | 24.6 µM | 57 µM | 23.1 µM | 80.9 µM | > 100 | 58.9 µM | 8.39 | 17.2 | 6.32 | 12.4 | 8.63 | 9.32 | 8.82 | 34 | 3.82 | 25
CCN(CC)c1ccc(C(=N)c2ccc(N(CC)CC)cc2)cc1 | 6.43 µM | 2.6 µM | 1.67 µM | 1.83 µM | 15.9 µM | 3.75 µM | 1.24 µM | 2.89 µM | 1.2 | 4.29 µM | 0.784 | 0.831 | 0.255 | 0.412 | 1.55 | 0.905 | 0.342 | 0.854 | 0.28 | 0.896
Cc1cc(SCC(=O)c2ccccc2)nc2ccccc12 | > 100 µM | > 100 µM | > 100 µM | > 100 µM | > 100 µM | > 100 µM | > 100 µM |  | > 100 | > 100 µM |  |  |  |  |  |  |  |  |  | 
O=C(N/N=C/c1cccc(O)c1O)c1ccccc1 | > 100 µM | > 100 µM | > 100 µM | > 100 µM | > 29.5 µM | > 100 µM | > 22.7 µM | > 100 µM | > 76 | > 69.1 µM | 0.477 | 1.52 | 1.29 | 0.648 | 0.312 | 0.587 | 0.626 | 3.68 | 0.412 | 2.57
O=C(Nc1ccc(Cl)cc1)c1cc(-c2ccc(F)cc2)c2sc(=O)[nH]c2n1 | 4.02 µM | 5.69 µM | 10.9 µM | 10.9 µM | 9.12 µM | 4.93 µM | 2.13 µM | 5.41 µM | 10.5 | 4.94 µM | 1.69 | 2.04 | 0.581 | 2.32 | 1.99 | 1.72 | 0.493 | 1.57 | 0.672 | 1.88
CCOC(=O)Sc1ncnc2nc[nH]c12 | > 100 µM | > 100 µM | > 100 µM | > 100 µM | > 100 µM | > 100 µM | > 100 µM | > 100 µM | 6.35 | > 100 µM | 4.65 | 0.808 | 0.312 | 3.47 | 0.491 | 3.08 | 5.96 | 0.484 | 0.358 | 0.547
NC(=S)N/N=C/c1ccc(OC(=O)COc2ccc(Cl)cc2)cn1 | > 100 µM | 91.1 µM | > 100 µM | > 100 µM | > 100 µM | > 100 µM | 23.6 µM | > 100 µM | > 100 | > 100 µM | 3.39 | 14.6 | 1.36 | 3.17 | 5.87 | 3.63 | 3.24 | 40 | 0.498 | 30
CC1CN1CC(O)C(O)CN1CC1C (configuration not stated) |  | > 71.9 µM | > 100 µM | > 87.1 µM | > 100 µM | > 71.2 µM | 14.8 µM | > 100 µM | > 100 | 65.7 µM | 0.395 | 2.89 | 2.02 | 1.24 | 6.18 | 1.13 | 3.3 | 6.11 | 0.053 | 7.7
c1ccc(C2=NNC3c4ccccc4-c4ccccc4N3C2)cc1 (configuration not stated) | > 100 µM | > 100 µM | 82 µM | > 100 µM | > 100 µM | > 100 µM | 29.4 µM | > 100 µM | 56.8 | 91.7 µM |  |  |  |  |  |  |  |  |  | 
CCC1(O)C(=O)OCc2c1cc1n(c2=O)Cc2cc3ccc(C=O)cc3nc2-1 (configuration not stated) | 38.9 µM and 5.51 µM | 14.9 µM and 1.56 µM | 50 µM and 66 µM | 6.73 µM and 12.6 µM | 50 µM and 23.6 µM | 8.02 µM and 24.2 µM | 6.95 µM and 6.23 µM | 50 µM and 52.1 µM |  | 50 µM and > 100 µM | 1.73 | 0.476 | 1.39 | 1.33 | 10.3 | 0.539 | 1.57 | 7.45 | 0.0647 | 20.8
CC/C=C\C[C@@H]1C/C=C2/C(=O)C=C[C@H]2C/C=C\CCCC(=O)O1 | 0.372 µM | 3.68 µM | 0.724 µM | 18.7 µM | 2.38 µM | 2.37 µM | 1.43 µM | 7.94 µM | 0.731 | 3.14 µM | 0.183 | 1.07 | 0.239 | 0.349 | 1.04 | 0.342 | 0.348 | 2.49 | 0.17 | 1.48
CCCCN=C(N)c1ccc(OCCSCCOc2ccc(C(N)=NCCCC)cc2)cc1 | > 100 µM | > 100 µM | > 100 µM | > 100 µM | > 100 µM | > 100 µM | 14.4 µM | > 100 µM | 53.7 | > 100 µM | > 100 | 12.1 | 2.3 | > 100 | 3.94 | 10.5 | 1.28 | 2.54 | 3.13 | 66.6
